According to patent US20210008137A1, “EXTRACTS OF COPRINUS COMATUS AND THEIR USE FOR REGULATING THE PILOSEBACEOUS UNIT IN A HUMAN” (Symrise AG, priority 2017, published 2021):

Test system: human sebaceous glands (hSGs)
Experiment: Sebum content of ex-vivo cultured human sebaceous glands (lipids/proteins ratio)
Assay type: cell-based
Details: 5 μM, positive control; for Sebum content in hSGs, Average as % ratio of the control group: day 6 of organ culture
Protocol: At the end of the culture time, the sebum was extracted and quantified from each experimental group of hSGs and then normalized by the proteins extracted from the residual hSG material (mg lipids/mg proteins). As a result, the biological activity of the tested compounds is inferred by comparing the lipids/proteins ratio of the treated glands with that of the control group. Using micro-scissors and tweezers, hSGs were isolated from the pilosebaceous units of a scalp skin sample. […] After 24 hours of culture the viability of the glands was assessed via resazurin assay and then, having attested their good viability, the culture medium was substituted with the same medium supplemented with experimental extracts, whereas the control group received again the standard medium. The culture medium was renewed every other day. At day six of the organ culture, after having preventively verified the good viability of the hSGs via resazurine assay, each group of hGSs was collected and analyzed for quantifying the sebum content. […] Methods are described in detail in WO2016020339 A8. The amounts of normalized lipids obtained from the treated groups, i.e. the sebum produced by each group of hSGs, were expressed in percentages with respect to the value obtained from the control group, in order to point out the regulatory effect performed by the experimental treatment.

COc1cc(CNC(=O)CCCC/C=C/C(C)C)ccc1O [capsaicin, Capsaicin]
Reduction of the sebum content of the hSGs in comparison with the control group (Table 6 experiment): 26.5%
Sebum content in hSGs, Average as % ratio of the control group (Table 6 experiment): 73.5%
Sebum content in hSGs, Average as % ratio of the control group (Table 7 experiment): 88.3%
